Columns and labels:
[1] = biological target: T1, recombinant USP1 protein (Homo sapiens, UniProt O94782, DEL125-138/DEL229-408/DEL608-737); assay: Binding affinity to recombinant USP1 protein by differential scanning fluorimetry; settings: compound 100 µM; 0.03 mg/mL USP1 (Δ1-66, Δ125-138, Δ229-408, Δ608-737); Tm with compound minus Tm with DMSO; read-out: ΔTm (°C)
T1 sequence (O94782 with tags, fused parts or gaps DEL125-138/DEL229-408/DEL608-737): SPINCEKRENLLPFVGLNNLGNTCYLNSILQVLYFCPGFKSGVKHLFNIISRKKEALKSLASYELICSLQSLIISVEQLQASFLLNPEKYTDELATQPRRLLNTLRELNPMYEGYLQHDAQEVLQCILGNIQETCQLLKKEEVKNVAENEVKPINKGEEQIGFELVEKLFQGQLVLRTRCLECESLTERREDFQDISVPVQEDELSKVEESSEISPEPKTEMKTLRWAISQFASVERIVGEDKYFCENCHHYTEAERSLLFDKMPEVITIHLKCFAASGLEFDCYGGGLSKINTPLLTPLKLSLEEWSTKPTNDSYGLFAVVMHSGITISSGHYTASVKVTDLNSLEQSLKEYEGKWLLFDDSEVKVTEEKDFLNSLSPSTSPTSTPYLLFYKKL
Procedure, shortened: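 Thermal shift readout: ΔTm is the compound-well melting temperature less the DMSO-well value, measured by real-time PCR. Compounds tested at 100 µM final against 0.03 mg/mL truncated USP1 (Δ1-66, Δ125-138, Δ229-408, Δ608-737) in pH 8.0 Tris buffer containing 150 mM NaCl, 2% glycerol, 1 mM DTT.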

[2] = system: UWB1.289 cells; assay: Cell proliferation inhibitory activity in BRCA1/2-mutant or HRD-positive cells (Cell Titer-Glo); assay type: cell-based; settings: UWB1289; UWB1.289 cells, 144 hours after compound treatment, Cell Titer-Glo, 1.5 nM to 10 µM; read-out: GI50 UWB1.289 BRCA1 mut
Procedure, shortened: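 GI50 from CellTiter-Glo luminescence after 144 h compound exposure at 37 °C. Cells seeded at 1,000 per well in MEBM/RPMI1640 mix 16–24 h beforehand; […] from 10 µM down to 1.5 nM final (3-fold steps).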

ΔTm at 100 µM [1] | Structure (SMILES) | GI50 [2]
> 5 °C | COc1ncnc(C2CC2)c1-c1ncc2cc(C(=O)N[C@@H]3CCN(C)CC3(F)F)n(Cc3ccc(-c4nc(C(F)(F)F)cn4C)cc3)c2n1 [Example 207, (R) -2-(4-cyclopropyl-6-methoxypyrimidin-5-yl)-N-(3,3-difluoro-1-methylpiperidin-4-yl)-7-(4-(1-methyl-4-(trifluoromethyl)-1H-imidazol-2-yl)benzyl)-7H-pyrrolo[2,3-d]pyrimidine-6-carboxamide] | < 0.1 µM
> 5 °C | COc1ncnc(C2CC2)c1-c1ncc2cc(C(=O)NC[C@@H](O)CO)n(Cc3ccc(-c4nc(C(F)(F)F)cn4C)cc3)c2n1 [Example 176, (R) -2-(4-cyclopropyl-6-methoxypyrimidin-5-yl)-N-(2,3-dihydroxypropy 1)-7-(4-(1-methyl-4-(trifluoromethyl)-1H-imidazol-2-yl)benzyl)-7H-pyrrolo[2,3-d]pyrimidine-6-carboxamide] | 0.1 to 0.5 µM
> 5 °C | COc1ncnc(C2CC2)c1-c1ncc2cc(C(=O)NC3CCC3)n(Cc3ccc(-c4nc(C(F)(F)F)cn4C(C)C)cc3)c2n1 [Example 15, N-cyclobutyl-2-(4-cyclopropyl-6-methoxypyrimidin-5-yl)-7-(4-(1-isopropyl-4-(trifluoromethyl)-1H-imidazol-2-yl)benzyl)-7H-pyrrolo[2,3-d]pyrimidine-6-carboxamide] | < 0.1 µM
> 5 °C | COc1ncnc(C2CC2)c1-c1ncc2cc(C(=O)NC(C)(C)CO)n(Cc3ccc(-c4nc(C(F)(F)F)cn4C)cc3)c2n1 [Example 197, 2-(4-cyclopropyl-6-methoxypyrimidin-5-yl)-N-(1-hydroxy-2-methylpropan-2-yl)-7-(4-(1-methyl-4-(trifluoromethyl)-1H-imidazol-2-yl)benzyl)-7H-pyrrolo[2,3-d]pyrimidine-6-carboxamide] | < 0.1 µM
> 5 °C | COc1ncnc(C2CC2)c1-c1ncc2cc(C(=O)N3CCN(C)CC3)n(Cc3ccc(-c4nc(C(F)(F)F)cn4C)cc3)c2n1 [Example 170, (2-(4-cyclopropyl-6-methoxypyrimid in-5-yl)-7-(4-(1-methyl-4-(trifluoromethyl)-1H-imidazol-2-yl)benzyl) -7H-pyrrolo[2,3-d]pyrimidin-6-yl) (4-methylpiperazi n-1-yl)methanone] | 0.1 to 0.5 µM
> 5 °C | COc1ncnc(C2CC2)c1-c1ncc2cc(C(=O)NC34CC(F)(C3)C4)n(Cc3ccc(-c4nc(C(F)(F)F)cn4C(C)C)cc3)c2n1 [Example 89, 2-(4-cyclopropyl-6-methoxypyrimidin-5-yl)-N-(3-fluorobicyclo[1.1.1]pentan-1-yl)-7-(4-(1-isopropyl-4-(trifluoromethyl)-1H-imidazol-2-yl)benzyl)-7H-pyrrolo[2,3-d]pyrimidine-6-carboxamide] | 0.1 to 0.5 µM
> 5 °C | COc1ncnc(C2CC2)c1-c1ncc2cc(C(=O)NCCO)n(Cc3ccc(-c4nc(C(F)(F)F)cn4C(C)C)cc3)c2n1 [Example 157, 2-(4-cyclopropyl-6-methoxypyrimidin-5-yl)-N-(2-hydroxyethyl)-7-(4-(1-isopropyl-4-(trifluoromethyl)-1H-imidazol-2-yl)benzyl)-7H-pyrrolo[2,3-d]pyrimidine-6-carboxamide] | < 0.1 µM
> 5 °C | COc1ncnc(C2CC2)c1-c1ncc2cc(C(=O)NC3COC3)n(Cc3ccc(-c4nc(C(F)(F)F)cn4C(C)C)cc3)c2n1 [Example 13, 2-(4-cyclopropyl-6-methoxypyrimidin-5-yl)-7-(4-(1-isopropyl-4-(trifluoromethyl)-1H-imidazol-2-yl)benzyl) -N-(oxetan-3-yl)-7H-pyrrolo[2,3-d]pyrimidine-6-carboxamide] | < 0.1 µM
> 5 °C | COc1ncnc(C2CC2)c1-c1ncc2cc(C(=O)N3CC(F)(F)C3)n(Cc3ccc(-c4nc(C(F)(F)F)cn4C(C)C)cc3)c2n1 [Example 40, (2-(4-cyclopropyl-6-methoxypyrimid in-5-yl)-7-(4-(1-isopropyl-4-(trifluoromethyl)-1H-imidazol-2-yl)benzyl)-7H-pyrrolo[2,3-d]pyrimidin-6-yl) (3,3-difluoroazetid in-1-yl)methanone] | 0.1 to 0.5 µM
> 5 °C | COc1ncnc(C2CC2)c1-c1ncc2cc(C(=O)N[C@H]3CCN(C)[C@H](C)C3)n(Cc3ccc(-c4nc(C(F)(F)F)cn4C)cc3)c2n1 [Example 201, 2-(4-cyclopropyl-6-methoxypyrimidin-5-yl)-N-((2R,4S)-1,2-dimethylpiperidin-4-yl)-7-(4-(1-methyl-4-(trifluoromethyl)-1H-imidazol-2-yl)benzyl)-7H-pyrrolo[2,3-d]pyrimidine-6-carboxamide] | < 0.1 µM
> 5 °C | COc1ncnc(C2CC2)c1-c1ncc2cc(C(=O)NCCN3CCOCC3)n(Cc3ccc(-c4nc(C(F)(F)F)cn4C(C)C)cc3)c2n1 [Example 6, 2-(4-cyclopropyl-6-methoxypyrimidin-5-yl)-7-(4-(1-isopropyl-4-(trifluoromethyl)-1H-imidazol-2-yl)benzyl)-N-(2-morpholinoethyl)-7H-pyrrolo[2,3-d]pyrimidine-6-carboxamide] | < 0.1 µM
> 5 °C | COc1ncnc(C2CC2)c1-c1ncc2cc(C(=O)N[C@@H]3CCN(C)C[C@@H]3F)n(Cc3ccc(-c4nc(C(F)(F)F)cn4C(C)C)cc3)c2n1 [Example 219, 2-(4-cyclopropyl-6-methoxypyrimidin-5-yl)-N-((3S,4R)-3-fluoro-1-methylpiperidin-4-yl)-7-(4-(1-isopropyl-4-(trifluoromethyl)-1H-imidazol-2-yl)benzyl)-7H-pyrrolo[2,3-d]pyrimidine-6-carboxamide] | < 0.1 µM
> 5 °C | COc1ncnc(C2CC2)c1-c1ncc2cc(C(=O)NC[C@H](C)O)n(Cc3ccc(-c4nc(C(F)(F)F)cn4C)cc3)c2n1 [Example 164, (S)-2-(4-cyclopropyl-6-methoxypyrimidin-5-yl)-N-(2-hydroxypropyl) -7-(4-(1-methyl-4-(trifluoromethyl)-1H-imidazol-2-yl)benzyl)-7H-pyrrolo[2,3-d]pyrimidine-6-carboxamide] | < 0.1 µM
> 5 °C | COCC1CN(C(=O)c2cc3cnc(-c4c(OC)ncnc4C4CC4)nc3n2Cc2ccc(-c3nc(C(F)(F)F)cn3C(C)C)cc2)C1 [Example 71, (2-(4-cyclopropyl-6-methoxypyrimid in-5-yl)-7-(4-(1-isopropyl-4-(trifluoromethyl)-1H-imidazol-2-yl)benzyl)-7H-pyrrolo[2,3-d]pyrimidin-6-yl) (3-(methoxymethyl)azetidin-1-yl)methanone] | < 0.1 µM
> 5 °C | CNC(=O)c1cc2cnc(-c3ccccc3C(C)C)nc2n1Cc1ccc(-c2nc(C(F)(F)F)cn2C)cc1 [Example 180, 2-(2-isopropylphenyl)-N-methyl-7-(4-(1-methyl-4-(trifluoromethyl)-1H-imidazol-2-yl)benzyl)-7H-pyrrolo[2,3-d]pyrimidine-6-carboxamide] | < 0.1 µM
> 5 °C | CNC(=O)c1cc2cnc(-c3c(OC(F)F)ncnc3C3CC3)nc2n1Cc1ccc(-c2nc(C(F)(F)F)cn2C(C)C)cc1 [Example 95, 2-(4-cyclopropyl-6-(difluoromethoxy)pyrimidin-5-yl)-7-(4-(1-isopropyl-4-(trifluoromethyl)-1H-imidazol-2-yl)benzyl)-N-methyl-7H-pyrrolo[2,3-d]pyrimidine-6-carboxamide] | 0.1 to 0.5 µM
> 5 °C | COc1ncnc(C2CC2)c1-c1ncc2cc(C(N)=O)n(Cc3ccc(-n4nc(C(F)(F)F)cc4C)cc3)c2n1 [Example 177, 2-(4-cyclopropyl-6-methoxypyrimidin-5-yl)-7-(4-(5-methyl-3-(trifluoromethyl)-1H-pyrazol-1-yl)benzyl)-7H-pyrrolo[2,3-d]pyrimidine-6-carboxamide] | < 0.1 µM
> 5 °C | CNC(=O)c1cc2cnc(-c3c(OC4CC4)ncnc3C3CC3)nc2n1Cc1ccc(-c2nc(C(F)(F)F)cn2C)cc1 [Example 184, 2-(4-cyclopropyl-6-cyclopropoxypyrimidin-5-yl)-N-methyl-7-(4-(1-methyl-4-(trifluoromethyl)-1H-imidazol-2-yl)benzyl)-7H-pyrrolo[2,3-d]pyrimidine-6-carboxamide] | < 0.1 µM
> 5 °C | COc1ncnc(C2CC2)c1-c1ncc2cc(C(=O)N[C@@H]3CCN(C)[C@H](C)C3)n(Cc3ccc(-c4nc(C(F)(F)F)cn4C)cc3)c2n1 [Example 199, 2-(4-cyclopropyl-6-methoxypyrimidin-5-yl)-N-((2R,4R)-1,2-dimethylpiperidin-4-yl)-7-(4-(1-methyl-4-(trifluoromethyl)-1H-imidazol-2-yl)benzyl)-7H-pyrrolo[2,3-d]pyrimidine-6-carboxamide] | < 0.1 µM

From EP4806898A1, “HETEROARYL DERIVATIVE COMPOUND AND USE THEREOF” (Voronoi Inc., priority 2023, dated 2025)
